Results as given in patent publication US7572786B2, “Substituted 1-piperidin-3-yl-4-piperidin-4-yl-piperazine derivatives and their use as neurokinin antagonists” (Janssen Pharmaceutica, N.V., priority 2002, dated 2009).

Assays:
Assay type in all cases: cell-based
NK1 = NK1 (Homo sapiens, UniProt P25103); assay: Signal transduction (ST), intracellular Ca++ (FLIPR), NK1 antagonism; details: for IC50: read-out: pIC50 NK1 (converted)
Protocol: (§1) This test evaluates in vitro functional NK1 antagonistic activity. For the measurements of intracellular Ca^++ concentrations the cells were grown on 96-well (black wall/transparent bottom) plates from Costar for 2 days until they reached confluence. The cells were loaded with 2 μM Fluo3 in DMEM containing 0.1% BSA and 2.5 mM probenecid for 1 h at 37° C. […] The cells were preincubated with a concentration range of antagonists for 20 min at RT and Ca^++-signals after addition of the agonists were measured in a Fluorescence Image Plate Reader (FLIPR from Molecular Devices, Crawley, England). The peak of the Ca^++-transient was considered as the relevant signal and the mean values of corresponding wells were analysed as described below.
(§2) The sigmoidal dose response curves were analysed by computerised curve-fitting, using the GraphPad Program. […] For antagonist responses the IC50-value was calculated using non-linear regression.

NK3 = target: T1, NK3 (Homo sapiens, UniProt P29371); assay: Signal transduction (ST), intracellular Ca++ (FLIPR), NK3; details: read-out: pIC50 NK3 (converted)
T1 sequence (P29371 1-465): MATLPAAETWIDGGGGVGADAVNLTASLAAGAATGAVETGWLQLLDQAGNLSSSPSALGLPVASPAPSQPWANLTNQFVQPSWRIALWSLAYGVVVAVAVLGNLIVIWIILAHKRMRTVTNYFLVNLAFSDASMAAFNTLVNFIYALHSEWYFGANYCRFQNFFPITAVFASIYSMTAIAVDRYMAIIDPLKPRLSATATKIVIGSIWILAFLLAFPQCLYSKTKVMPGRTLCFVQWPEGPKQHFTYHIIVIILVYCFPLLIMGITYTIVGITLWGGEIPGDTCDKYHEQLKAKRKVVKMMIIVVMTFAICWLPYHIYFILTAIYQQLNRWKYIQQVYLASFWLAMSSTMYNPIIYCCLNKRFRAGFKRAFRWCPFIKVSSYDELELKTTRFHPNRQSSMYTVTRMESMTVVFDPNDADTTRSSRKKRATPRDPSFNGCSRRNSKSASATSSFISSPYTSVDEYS
Protocol: [The source words this procedure for another target and reports this target under the same test.] as §1, §2

NK2 = target: T2, NK2 (Homo sapiens, UniProt P21452); assay: Signal transduction (ST), intracellular Ca++ (FLIPR), NK2; details: read-out: pIC50 NK2 (converted)
T2 sequence (P21452 1-398): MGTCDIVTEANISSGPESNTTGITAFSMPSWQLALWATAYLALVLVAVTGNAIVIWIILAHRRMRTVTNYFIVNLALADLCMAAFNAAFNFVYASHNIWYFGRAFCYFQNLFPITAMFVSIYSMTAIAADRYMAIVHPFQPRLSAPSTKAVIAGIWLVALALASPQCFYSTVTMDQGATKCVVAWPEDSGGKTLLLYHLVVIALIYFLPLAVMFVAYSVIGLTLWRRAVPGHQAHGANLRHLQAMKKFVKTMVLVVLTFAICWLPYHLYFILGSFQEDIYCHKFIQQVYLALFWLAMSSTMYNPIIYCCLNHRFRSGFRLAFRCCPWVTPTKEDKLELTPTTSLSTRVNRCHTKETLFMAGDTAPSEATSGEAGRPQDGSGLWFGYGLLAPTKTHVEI
Protocol: [The source words this procedure for another target and reports this target under the same test.] as §1, §2

NK1, sequence (P25103 whole entry): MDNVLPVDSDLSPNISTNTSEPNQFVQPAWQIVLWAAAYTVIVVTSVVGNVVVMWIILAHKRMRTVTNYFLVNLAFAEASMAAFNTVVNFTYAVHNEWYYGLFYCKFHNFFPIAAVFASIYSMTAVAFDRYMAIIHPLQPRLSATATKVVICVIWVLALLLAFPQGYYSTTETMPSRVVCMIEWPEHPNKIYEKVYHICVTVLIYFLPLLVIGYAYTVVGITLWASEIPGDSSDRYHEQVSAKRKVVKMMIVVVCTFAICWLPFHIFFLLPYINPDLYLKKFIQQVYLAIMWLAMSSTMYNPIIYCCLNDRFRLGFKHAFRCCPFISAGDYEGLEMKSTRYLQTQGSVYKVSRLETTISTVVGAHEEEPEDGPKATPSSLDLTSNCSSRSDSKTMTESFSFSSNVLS

| SMILES | pIC50 NK1 (NK1) | IC50 (NK1) [nM] | IC50 (NK3) [nM] | IC50 (NK2) [nM] |
| --- | --- | --- | --- | --- |
| O=C(c1cc(C(F)(F)F)cc(C(F)(F)F)c1)N1CCC(N2CCN(C3CCCNC3)CC2)CC1Cc1ccccc1 (single isomer, unassigned) [Compound 109] | 7.3 |  |  |  |
| O=C(c1ccoc1)N1CCCC(N2CCCN(C3CCN(C(=O)c4cc(C(F)(F)F)cc(C(F)(F)F)c4)C(Cc4ccccc4)C3)CC2)C1 (single isomer, unassigned) [Compound 112] |  | 158 |  |  |
| O=C(C1CCOC1)N1CCCC(N2CCCN(C3CCN(C(=O)c4cc(C(F)(F)F)cc(C(F)(F)F)c4)C(Cc4ccccc4)C3)CC2)C1 (single isomer, unassigned) [Compound 115] |  | 39.8 | 6310 |  |
| O=C(c1ccoc1)N1CCCC(N2CCCN(C3CCN(C(=O)c4cc(C(F)(F)F)cc(C(F)(F)F)c4)C(Cc4ccccc4)C3)CC2)C1 (single isomer, unassigned) [Compound 116] |  | 50.1 | 3980 |  |
| O=C(C1CCOC1)N1CCCC(N2CCCN(C3CCN(C(=O)c4cc(C(F)(F)F)cc(C(F)(F)F)c4)C(Cc4ccccc4)C3)CC2)C1 (single isomer, unassigned) [Compound 121] |  | 126 | 7940 |  |
| O=C(c1cc(C(F)(F)F)cc(C(F)(F)F)c1)N1CCC(N2CCN(C3CCCN(Cc4ccccc4)C3)CC2)CC1Cc1ccccc1 (stereo not shown) [Compound 1] |  | 50.1 |  |  |
| O=C(c1cc(C(F)(F)F)cc(C(F)(F)F)c1)N1CCC(N2CCN(C3CCCNC3)CC2)CC1Cc1ccccc1 (stereo not shown) [Compound 2] |  | 20 |  |  |
| Cc1cc(C)cc(C(=O)N2CCCC(N3CCN(C4CCN(C(=O)c5cc(C(F)(F)F)cc(C(F)(F)F)c5)C(Cc5ccccc5)C4)CC3)C2)c1 (stereo not shown) [Compound 3] |  | 79.4 | 2000 |  |
| COc1ccc(S(=O)(=O)N2CCCC(N3CCN([C@H]4CCN(C(=O)c5cc(C(F)(F)F)cc(C(F)(F)F)c5)[C@H](Cc5ccccc5)C4)CC3)C2)cc1F (stereo partly shown) [Compound 7] |  | 50.1 | 1000 |  |
| O=C(c1ccccc1)N1CCCC(N2CCN([C@H]3CCN(C(=O)c4cc(C(F)(F)F)cc(C(F)(F)F)c4)[C@H](Cc4ccccc4)C3)CC2)C1 (stereo partly shown) [Compound 8] |  | 20 | 251 |  |
| O=C(c1cc(F)ccc1F)N1CCCC(N2CCN([C@H]3CCN(C(=O)c4cc(C(F)(F)F)cc(C(F)(F)F)c4)[C@H](Cc4ccccc4)C3)CC2)C1 (stereo partly shown) [Compound 12] |  | 25.1 | 3160 |  |
| Cc1cc(C)cc(C(=O)N2CCCC(N3CCN([C@@H]4CCN(C(=O)c5cc(C(F)(F)F)cc(C(F)(F)F)c5)[C@H](Cc5ccccc5)C4)CC3)C2)c1.O=C(O)/C=C/C(=O)O.O=C(O)/C=C/C(=O)O (stereo partly shown) [Compound 13] | 6.3 |  |  |  |
| CC1(C(=O)N2CCCC(N3CCN([C@H]4CCN(C(=O)c5cc(C(F)(F)F)cc(C(F)(F)F)c5)[C@H](Cc5ccccc5)C4)CC3)C2)CC1 (stereo partly shown) [Compound 14] |  | 12.6 | 2000 |  |
| O=C(C1CCOC1)N1CCCC(N2CCN([C@H]3CCN(C(=O)c4cc(C(F)(F)F)cc(C(F)(F)F)c4)[C@H](Cc4ccccc4)C3)CC2)C1 (stereo partly shown) [Compound 16] |  | 12.6 | 1000 |  |
| O=C(c1ccoc1)N1CCCC(N2CCN(C3CCN(C(=O)c4cc(C(F)(F)F)cc(C(F)(F)F)c4)C(Cc4ccccc4)C3)CC2)C1 (stereo not shown) [Compound 17] |  | 31.6 | 2510 |  |
| O=C(c1ccco1)N1CCCC(N2CCN([C@H]3CCN(C(=O)c4cc(C(F)(F)F)cc(C(F)(F)F)c4)[C@H](Cc4ccccc4)C3)CC2)C1 (stereo partly shown) [Compound 18] |  | 20 | 2510 |  |
| Cc1occc1C(=O)N1CCCC(N2CCN([C@H]3CCN(C(=O)c4cc(C(F)(F)F)cc(C(F)(F)F)c4)[C@H](Cc4ccccc4)C3)CC2)C1 (stereo partly shown) [Compound 19] |  | 25.1 | 2000 |  |
| O=C(c1cc(C(F)(F)F)cc(C(F)(F)F)c1)N1CC[C@H](N2CCN(C3CCCN(C(=O)n4ccnc4)C3)CC2)C[C@H]1Cc1ccccc1 (stereo partly shown) [Compound 21] |  | 20 | 1260 |  |
| O=C(C(=O)N1CCCC(N2CCN(C3CCN(C(=O)c4cc(C(F)(F)F)cc(C(F)(F)F)c4)C(Cc4ccccc4)C3)CC2)C1)c1ccco1 (stereo not shown) [Compound 24] |  | 25.1 | 3980 |  |

| SMILES | pIC50 NK1 (NK1) | IC50 (NK1) [nM] | IC50 (NK3) [nM] | IC50 (NK2) [nM] |
| --- | --- | --- | --- | --- |
| O=C(c1cc(C(F)(F)F)cc(C(F)(F)F)c1)N1CC[C@H](N2CCN(C3CCCN(S(=O)(=O)c4ccccc4Cl)C3)CC2)C[C@H]1Cc1ccccc1 (stereo partly shown) [Compound 27] |  | 20 | 1260 |  |
| COc1ccc(C)cc1S(=O)(=O)N1CCCC(N2CCN([C@H]3CCN(C(=O)c4cc(C(F)(F)F)cc(C(F)(F)F)c4)[C@H](Cc4ccccc4)C3)CC2)C1 (stereo partly shown) [Compound 31] |  | 25.1 | 3160 |  |
| Cc1csc(C)c1S(=O)(=O)N1CCCC(N2CCN([C@H]3CCN(C(=O)c4cc(C(F)(F)F)cc(C(F)(F)F)c4)[C@H](Cc4ccccc4)C3)CC2)C1 (stereo partly shown) [Compound 33] |  | 39.8 | 1000 |  |
| O=C(c1cc(C(F)(F)F)cc(C(F)(F)F)c1)N1CC[C@H](N2CCN(C3CCCN(S(=O)(=O)c4ccc(-c5ccccn5)s4)C3)CC2)C[C@H]1Cc1ccccc1 (stereo partly shown) [Compound 34] |  | 50.1 | 2000 |  |
| CC(C)S(=O)(=O)N1CCCC(N2CCN([C@H]3CCN(C(=O)c4cc(C(F)(F)F)cc(C(F)(F)F)c4)[C@H](Cc4ccccc4)C3)CC2)C1 (stereo partly shown) [Compound 35] |  | 10 | 2000 |  |
| Cc1cc(C(=O)N2CCCC(N3CCN([C@H]4CCN(C(=O)c5cc(C(F)(F)F)cc(C(F)(F)F)c5)[C@H](Cc5ccccc5)C4)CC3)C2)n(C)n1 (stereo partly shown) [Compound 42] |  | 7.94 | 2510 |  |
| Cc1c(S(=O)(=O)N2CCCC(N3CCN([C@H]4CCN(C(=O)c5cc(C(F)(F)F)cc(C(F)(F)F)c5)[C@H](Cc5ccccc5)C4)CC3)C2)cnn1-c1ccccc1 (stereo partly shown) [Compound 44] |  | 63.1 | 5010 |  |
| O=C(c1cc(C(F)(F)F)cc(C(F)(F)F)c1)N1CC[C@H](N2CCN(C3CCCN(S(=O)(=O)c4ccc(COCc5ccccc5)cc4)C3)CC2)C[C@H]1Cc1ccccc1 (stereo partly shown) [Compound 58] |  | 251 |  | 2000 |
| CC(=O)N1CCC[C@H]1C(=O)N1CCCC(N2CCN([C@H]3CCN(C(=O)c4cc(C(F)(F)F)cc(C(F)(F)F)c4)[C@H](Cc4ccccc4)C3)CC2)C1 (stereo partly shown) [Compound 60] |  | 5.01 | 6310 |  |
| O=C(c1ccc(CCOCc2ccccc2)s1)N1CCCC(N2CCN(C3CCN(C(=O)c4cc(C(F)(F)F)cc(C(F)(F)F)c4)C(Cc4ccccc4)C3)CC2)C1 (stereo not shown) [Compound 93] |  | 126 | 5010 |  |
| O=C(c1cc(C(F)(F)F)cc(C(F)(F)F)c1)N1CC[C@H](N2CCN(C3CCCN(S(=O)(=O)c4ccc(O)c(F)c4)C3)CC2)C[C@H]1Cc1ccccc1 (stereo partly shown) [Compound 107] |  | 15.8 | 1260 |  |
| O=C(c1cc(C(F)(F)F)cc(C(F)(F)F)c1)N1CCC(N2CCN(C3CCCNC3)CC2)CC1Cc1ccccc1 (stereo not shown) [Compound 108] |  | 79.4 |  |  |
| O=C(c1cc(C(F)(F)F)cc(C(F)(F)F)c1)N1CC[C@@H](N2CCCN(C3CCCN(Cc4ccccc4)C3)CC2)C[C@H]1Cc1ccccc1 (stereo partly shown) [Compound 110] |  | 200 |  |  |
| O=C(c1cc(C(F)(F)F)cc(C(F)(F)F)c1)N1CC[C@H](N2CCCN(C3CCCN(Cc4ccccc4)C3)CC2)C[C@H]1Cc1ccccc1 (stereo partly shown) [Compound 111] |  | 251 | 7940 |  |
| O=C(C1CC1)N1CCCC(N2CCCN([C@@H]3CCN(C(=O)c4cc(C(F)(F)F)cc(C(F)(F)F)c4)[C@H](Cc4ccccc4)C3)CC2)C1 (stereo partly shown) [Compound 114] |  | 126 | 7940 |  |
| O=C(c1ccccc1Cl)N1CCCC(N2CCCN([C@H]3CCN(C(=O)c4cc(C(F)(F)F)cc(C(F)(F)F)c4)[C@H](Cc4ccccc4)C3)CC2)C1 (stereo partly shown) [Compound 118] |  | 63.1 | 2510 |  |
| O=C(c1ccccc1Cl)N1CCCC(N2CCCN([C@@H]3CCN(C(=O)c4cc(C(F)(F)F)cc(C(F)(F)F)c4)[C@H](Cc4ccccc4)C3)CC2)C1 (stereo partly shown) [Compound 119] |  | 126 |  |  |
| O=C(c1cc(C(F)(F)F)cc(C(F)(F)F)c1)N1CC[C@@H](N2CCCN(C3CCCN(S(=O)(=O)c4cccs4)C3)CC2)C[C@H]1Cc1ccccc1 (stereo partly shown) [Compound 120] |  | 200 | 7940 |  |
| O=C(c1cc(C(F)(F)F)cc(C(F)(F)F)c1)N1CC[C@H](N2CCCN(C3CCCN(S(=O)(=O)c4cccs4)C3)CC2)C[C@H]1Cc1ccccc1 (stereo partly shown) [Compound 122] |  | 100 |  |  |
